Laboratory results: patent US9493446B2, “Orexin receptor antagonists which are [ortho bi-(hetero-)aryl]-[2-(meta bi-(hetero-)aryl)-pyrrolidin-1-yl]-methanone derivatives” (Actelion Pharmaceuticals Ltd, priority 2012, dated 2016)
Like-named read-outs stand apart in the source and are kept apart here.

Columns and labels:
orexin-1 = orexin-1 (Homo sapiens (Human), UniProt O43613); test: Intracellular calcium measurement (FLIPR), CHO cells expressing human orexin-1 receptor, 3 nM orexin-A; type: cell-based; conditions: read-out: IC50 OX1
Experimental: (§1) In Vitro Assay: Intracellular Calcium Measurements:
(§2) Chinese hamster ovary (CHO) cells expressing the human orexin-1 receptor and the human orexin-2 receptor, respectively, are grown in culture medium (Ham F-12 with L-Glutamine) containing 300 μg/mL G418, 100 U/mL penicillin, 100 μg/mL streptomycin and 10% heat inactivated fetal calf serum (FCS). The cells are seeded at 20,000 cells/well into 384-well black clear bottom sterile plates (Greiner). The seeded plates are incubated overnight at 37° C. in 5% CO2.
(§3) Human orexin-A as an agonist is prepared as 1 mM stock solution in MeOH: water (1:1), diluted in HBSS containing 0.1% bovine serum albumin (BSA), NaHCO3: 0.375 g/L and 20 mM HEPES for use in the assay at a final concentration of 3 nM.
(§4) Antagonists are prepared as 10 mM stock solution in DMSO, then diluted in 384-well plates using DMSO followed by a transfer of the dilutions into in HBSS containing 0.1% bovine serum albumin (BSA), NaHCO3: 0.375 g/L and 20 mM HEPES. On the day of the assay, 50 μL of staining buffer (HBSS containing 1% FCS, 20 mM HEPES, NaHCO3: 0.375 g/L, 5 mM probenecid (Sigma) and 3 μM of the fluorescent calcium indicator fluo-4 AM (1 mM stock solution in DMSO, containing 10% pluronic) is added to each well. The 384-well cell-plates are incubated for 50 min at 37° C. in 5% CO2 followed by equilibration at rt for 30 min before measurement.
(§5) Within the Fluorescent Imaging Plate Reader (FLIPR Tetra, Molecular Devices), antagonists are added to the plate in a volume of 10 μL/well, incubated for 120 min and finally 10 μL/well of agonist is added. Fluorescence is measured for each well at 1 second intervals, and the height of each fluorescence peak is compared to the height of the fluorescence peak induced by 3 nM orexin-A with vehicle in place of antagonist. […] Optimized conditions were achieved by adjustment of pipetting speed and cell splitting regime. The calculated IC50 values may fluctuate depending on the daily cellular assay performance. Fluctuations of this kind are known to those skilled in the art.

human orexin-2 receptor = human orexin-2 receptor (Homo sapiens (Human), UniProt O43614); test: Intracellular calcium measurement (FLIPR), CHO cells expressing human orexin-2 receptor, 3 nM orexin-A; type: cell-based; conditions: read-out: IC50 OX2
Experimental: as §1, §2, §3, §4, §5

[1] = CHO cells expressing human orexin-1 receptor, FLIPR, 3 nM orexin-A, geometric mean if determined several times
[2] = CHO cells expressing human orexin-2 receptor, FLIPR, 3 nM orexin-A, geometric mean if determined several times

orexin-1, sequence (O43613 whole entry): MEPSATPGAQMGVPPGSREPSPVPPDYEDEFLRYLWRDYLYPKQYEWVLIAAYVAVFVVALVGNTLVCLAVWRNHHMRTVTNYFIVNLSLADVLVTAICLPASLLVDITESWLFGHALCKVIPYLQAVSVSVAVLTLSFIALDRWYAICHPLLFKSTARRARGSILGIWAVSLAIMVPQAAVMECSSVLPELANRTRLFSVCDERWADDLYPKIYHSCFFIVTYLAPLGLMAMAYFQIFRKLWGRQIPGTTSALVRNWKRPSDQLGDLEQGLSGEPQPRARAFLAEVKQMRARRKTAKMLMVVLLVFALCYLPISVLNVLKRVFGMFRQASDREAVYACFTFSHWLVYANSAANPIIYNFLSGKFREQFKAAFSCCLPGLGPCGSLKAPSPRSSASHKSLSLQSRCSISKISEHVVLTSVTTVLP
human orexin-2 receptor, sequence (O43614 whole entry): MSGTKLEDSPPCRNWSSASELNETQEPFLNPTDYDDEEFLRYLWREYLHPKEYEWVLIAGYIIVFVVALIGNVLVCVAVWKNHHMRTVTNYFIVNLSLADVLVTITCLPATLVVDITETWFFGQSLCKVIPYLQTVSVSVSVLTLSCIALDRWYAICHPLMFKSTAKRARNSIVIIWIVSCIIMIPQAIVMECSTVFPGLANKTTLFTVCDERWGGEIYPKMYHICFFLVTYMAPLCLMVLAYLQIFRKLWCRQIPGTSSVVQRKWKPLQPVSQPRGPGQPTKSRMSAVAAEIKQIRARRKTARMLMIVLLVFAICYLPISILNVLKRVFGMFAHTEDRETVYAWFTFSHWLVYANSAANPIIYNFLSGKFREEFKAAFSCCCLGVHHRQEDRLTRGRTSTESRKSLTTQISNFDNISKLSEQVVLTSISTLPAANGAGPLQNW

SMILES	IC50 (orexin-1; [1]) [µM]	IC50 (human orexin-2 receptor; [2]) [µM]	IC50 (orexin-1) [µM]	IC50 (human orexin-2 receptor) [µM]
Cc1ccc(-n2nccn2)c(C(=O)N2CCC[C@H]2c2nc(-c3c[nH]c4ccccc34)no2)c1 [compound 15, {(S)-2-[3-(1H-Indol-3-yl)-[1,2,4]oxadiazol-5-yl]-pyrrolidin-1-yl}-(5-methyl-2-[1,2,3]triazol-2-yl-phenyl)-methanone]	0.021	0.008	–	–
Cc1ccc(-n2nccn2)c(C(=O)N2CCC[C@H]2c2nc(-c3ccccc3C)no2)c1 [compound 16, (5-Methyl-2-[1,2,3]triazol-2-yl-phenyl)-[(S)-2-(3-o-tolyl-[1,2,4]oxadiazol-5-yl)-pyrrolidin-1-yl]-methanone]	0.128	0.016	–	–
Cc1ccc(-n2nccn2)c(C(=O)N2CCC[C@H]2c2nc(-c3ccccc3OC(F)(F)F)no2)c1 [compound 17, (5-Methyl-2-[1,2,3]triazol-2-yl-phenyl)-{(S)-2-[3-(2-trifluoromethoxy-phenyl)-[1,2,4]oxadiazol-5-yl]-pyrrolidin-1-yl}-methanone]	0.008	0.005	–	–
Cc1ccc(-n2nccn2)c(C(=O)N2CCC[C@H]2c2nc(-c3cccc(Cl)c3)no2)c1 [compound 18]	–	0.032	0.091	–
Cc1ccc(-n2nccn2)c(C(=O)N2CCC[C@H]2c2nc(-c3ccc4c(c3)OC(F)(F)O4)no2)c1 [compound 19, {(S)-2-[3-(2,2-Difluoro-benzo[1,3]dioxol-5-yl)-[1,2,4]oxadiazol-5-yl]-pyrrolidin-1-yl}-(5-methyl-2-[1,2,3]triazol-2-yl-phenyl)-methanone]	1.86	0.652	–	–
Cc1ccc(-n2nccn2)c(C(=O)N2CCC[C@H]2c2nc(-c3ccc(F)c(F)c3)no2)c1 [compound 20, {(S)-2-[3-(3,4-Difluoro-phenyl)-[1,2,4]oxadiazol-5-yl]-pyrrolidin-1-yl}-(5-methyl-2-[1,2,3]triazol-2-yl-phenyl)-methanone]	0.6	0.177	–	–
Cc1ccc(-n2nccn2)c(C(=O)N2CCC[C@H]2c2nc(-c3ccccc3Cl)no2)c1 [compound 21]	0.339	0.019	–	–
Cc1ccc(-n2nccn2)c(C(=O)N2CCC[C@H]2c2nc(-c3ccc4c(c3)OCO4)no2)c1 [compound 22, [(S)-2-(3-Benzo[1,3]dioxol-5-yl-[1,2,4]oxadiazol-5-yl)-pyrrolidin-1-yl]-(5-methyl-2-[1,2,3]triazol-2-yl-phenyl)-methanone]	0.942	0.322	–	–
Cc1ccc(-n2nccn2)c(C(=O)N2CCC[C@H]2c2nc(-c3cccc(Cl)c3C)no2)c1 [compound 23]	0.04	0.007	–	–
Cc1ccc(-n2nccn2)c(C(=O)N2CCC[C@H]2c2nc(-c3c(C)cccc3Cl)no2)c1 [compound 24]	0.472	0.104	–	–
CCc1ccccc1-c1noc([C@@H]2CCCN2C(=O)c2cc(C)ccc2-n2nccn2)n1 [compound 25, {(S)-2-[3-(2-Ethyl-phenyl)-[1,2,4]oxadiazol-5-yl]-pyrrolidin-1-yl}-(5-methyl-2-[1,2,3]triazol-2-yl-phenyl)-methanone]	0.019	0.011	–	–
Cc1ccc(-n2nccn2)c(C(=O)N2CCC[C@H]2c2nc(-c3cccc(F)c3C)no2)c1 [compound 26, {(S)-2-[3-(3-Fluoro-2-methyl-phenyl)-[1,2,4]oxadiazol-5-yl]-pyrrolidin-1-yl}-(5-methyl-2-[1,2,3]triazol-2-yl-phenyl)-methanone]	0.077	0.005	–	–
Cc1ccc(-n2nccn2)c(C(=O)N2CCC[C@H]2c2nc(-c3cccc(C)c3Cl)no2)c1 [compound 27]	0.125	–	–	0.008
Cc1ccc(-n2nccn2)c(C(=O)N2CCC[C@H]2c2nc(-c3cccnc3Cl)no2)c1 [compound 28]	–	0.033	2.61	–
Cc1ccc(-n2nccn2)c(C(=O)N2CCC[C@H]2c2nc(-c3ccccc3C(F)(F)F)no2)c1 [compound 29, (5-Methyl-2-[1,2,3]triazol-2-yl-phenyl)-{(S)-2-[3-(2-trifluoromethyl-phenyl)-[1,2,4]oxadiazol-5-yl]-pyrrolidin-1-yl}-methanone]	0.249	0.039	–	–
